Source: ChEMBL document CHEMBL1201862, “PubChem BioAssay data set” (2004)
Values joined by “and” are separate entries in the source; they are usually repeats but may differ in a detail not shown here. Equal entries are not always repeated. Active and inactive are the calls of the source.

Tests used:
[1] = target: Cytochrome P450 3A4 (Homo sapiens, UniProt P08684); conditions: Potency;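 further: confirmatory qHTS run detecting inhibitors and substrates of CYP3A4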
[2] = NIH-3T3 fibroblast cytotoxicity, dose response, cytotoxicity control, cell-based, fluorescence, Alamar Blue, secondary assay (AID 2327); type: functional;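 further: NIH-3T3 mouse fibroblasts cultured with fluconazole at 8 µg/mL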
[3] = viability loss of HPDE-C7K cells – cell-based, fluorescence, HTS, primary screen (AID 431); type: functional; conditions: Homo sapiens
[4] = HPDE-C7 pancreatic duct cell viability loss – fluorescence, HTS (AID 430); type: functional, cell-based; conditions: Homo sapiens
[5] = fluconazole-exposed Candida albicans growth modulators – fluorescence, retest, confirmation (AID 2467); type: functional, cell-based
[6] = target: Induced myeloid leukemia cell differentiation protein Mcl-1 (Homo sapiens, UniProt Q07820); type: functional
[7] = target: T1, Leucine aminopeptidase (Plasmodium falciparum 3D7, UniProt Q8IL11); assay: P. falciparum M17LAP inhibitors, primary screen, biochemical, fluorogenic H-Leu-NHMec substrate, 1536-well (AID 1619); type: functional
T1 sequence (Q8IL11 whole entry): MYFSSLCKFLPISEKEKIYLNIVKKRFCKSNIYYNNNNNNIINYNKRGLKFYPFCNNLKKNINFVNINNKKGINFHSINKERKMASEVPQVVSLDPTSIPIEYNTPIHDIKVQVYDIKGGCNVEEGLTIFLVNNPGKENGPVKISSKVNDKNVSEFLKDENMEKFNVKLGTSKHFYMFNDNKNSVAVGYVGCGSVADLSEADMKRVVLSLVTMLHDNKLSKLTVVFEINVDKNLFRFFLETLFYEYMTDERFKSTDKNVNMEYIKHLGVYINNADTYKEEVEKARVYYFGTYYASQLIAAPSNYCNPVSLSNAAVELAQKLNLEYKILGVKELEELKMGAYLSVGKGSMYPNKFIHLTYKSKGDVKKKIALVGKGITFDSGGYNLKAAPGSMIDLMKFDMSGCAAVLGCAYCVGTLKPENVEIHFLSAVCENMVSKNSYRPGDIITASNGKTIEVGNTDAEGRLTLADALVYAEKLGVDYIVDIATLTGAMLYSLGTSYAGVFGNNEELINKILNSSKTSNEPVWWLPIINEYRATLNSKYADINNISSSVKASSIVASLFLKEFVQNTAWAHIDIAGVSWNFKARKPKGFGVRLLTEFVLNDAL

[8] = NIH3T3 cell viability loss – ATP luminescence, mouse fibroblasts, counter-screen, dose response (AID 2010); type: functional, cell-based;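 further: cells exposed to compound for about 90 hours before reading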
[9] = microbe, parasite or virus in culture; type: functional; conditions: Mycobacterium tuberculosis
[10] = Trypanosoma cruzi growth suppression in host cells – NIH3T3 host cells, beta-gal luminescence, confirmation (AID 2044); type: functional, cell-based;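 further: intracellular parasites grown in NIH/3T3 mouse fibroblasts as host cells; luminescent beta-galactosidase reporter signal from transgenic T. cruzi replicating inside host cells; inhibitors lower the luminescence signal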
[11] = tested on: Streptococcus; assay: GAS UMAA2166 growth inhibition – luminescence, BacTiterGlo, counter-screen for streptokinase expression inhibitor project, dose response (AID 1915); type: functional, organism-based;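 further: potency for reduction of bacterial viability or growth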
[12] = tested on: Streptococcus sp. 'group A'; assay: Streptococcus pyogenes SK(-)GAS viability under kanamycin – luminescence, BacTiterGlo, confirmation, counter-screen for streptokinase expression inhibitor project, dose response (AID 1900); type: functional, organism-based
[13] = Luminescence Cell-Based Dose Retest to Confirm Inhibitors of Cancer Stem Cells. [Related pubchem assays (depositor defined):AID2717, AID2721]; type: functional; conditions: Homo sapiens
[14] = target: T2, Heat shock factor protein 1 (Mus musculus, UniProt P38532); assay: enhancement of HSF1-driven luciferase signal – cell-based, NIH3T3, luminescence, dose retest, confirmation (AID 435004); type: functional;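 further: stress induced by proteasome inhibitor MG132 added 30 min after compound; luciferase reporter driven by HSF1 response element in NIH3T3 cells; actives raise luminescence as potentiators of the MG132 stress response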
T2 sequence (P38532 whole entry): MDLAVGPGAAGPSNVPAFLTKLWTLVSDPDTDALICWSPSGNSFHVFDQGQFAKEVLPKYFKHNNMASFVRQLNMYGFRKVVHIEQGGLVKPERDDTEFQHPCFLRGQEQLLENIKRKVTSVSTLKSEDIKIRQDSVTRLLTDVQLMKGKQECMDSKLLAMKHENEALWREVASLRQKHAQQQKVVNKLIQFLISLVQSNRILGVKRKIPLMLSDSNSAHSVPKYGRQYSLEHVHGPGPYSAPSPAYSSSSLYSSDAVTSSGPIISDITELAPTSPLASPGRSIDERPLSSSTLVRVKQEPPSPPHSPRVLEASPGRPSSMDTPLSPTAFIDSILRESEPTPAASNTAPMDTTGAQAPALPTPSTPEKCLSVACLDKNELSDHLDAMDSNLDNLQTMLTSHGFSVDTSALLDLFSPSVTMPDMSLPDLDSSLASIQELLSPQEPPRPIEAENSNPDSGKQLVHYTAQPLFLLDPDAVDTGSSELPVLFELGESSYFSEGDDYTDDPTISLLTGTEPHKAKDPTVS

[15] = viability of PTEN-deleted HCT116 cells – cell-based, HCT116 PTEN knockout, dose response (AID 1047); type: functional;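 further: HCT116 colon tumor cells with PTEN knocked out; cells exposed to compound for 60 hours before readout; potency for loss of cell viability measured by luminescence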
[16] = target: Prothrombin (Homo sapiens, UniProt P00734); assay: Thrombin 1536 HTS Dose Response Confirmation. [Related pubchem assays: 1046 (Thrombin 1536 HTS; hits were confirmed in this assay)]; type: functional
[17] = viability of HCT116 lacking mutant beta-catenin – cell-based, human colon tumor, dose response (AID 1045); type: functional;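 further: HCT116 colon tumor cells with beta catenin knocked out; cells exposed to compound for 60 hours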
[18] = target: T3, Replicative DNA helicase DnaB (Mycobacterium tuberculosis, UniProt P9WMR3); assay: DnaB intein splicing inhibitors, dose response, biochemical, cell-free fluorescence (AID 449749); type: functional
T3 sequence (P9WMR3 whole entry): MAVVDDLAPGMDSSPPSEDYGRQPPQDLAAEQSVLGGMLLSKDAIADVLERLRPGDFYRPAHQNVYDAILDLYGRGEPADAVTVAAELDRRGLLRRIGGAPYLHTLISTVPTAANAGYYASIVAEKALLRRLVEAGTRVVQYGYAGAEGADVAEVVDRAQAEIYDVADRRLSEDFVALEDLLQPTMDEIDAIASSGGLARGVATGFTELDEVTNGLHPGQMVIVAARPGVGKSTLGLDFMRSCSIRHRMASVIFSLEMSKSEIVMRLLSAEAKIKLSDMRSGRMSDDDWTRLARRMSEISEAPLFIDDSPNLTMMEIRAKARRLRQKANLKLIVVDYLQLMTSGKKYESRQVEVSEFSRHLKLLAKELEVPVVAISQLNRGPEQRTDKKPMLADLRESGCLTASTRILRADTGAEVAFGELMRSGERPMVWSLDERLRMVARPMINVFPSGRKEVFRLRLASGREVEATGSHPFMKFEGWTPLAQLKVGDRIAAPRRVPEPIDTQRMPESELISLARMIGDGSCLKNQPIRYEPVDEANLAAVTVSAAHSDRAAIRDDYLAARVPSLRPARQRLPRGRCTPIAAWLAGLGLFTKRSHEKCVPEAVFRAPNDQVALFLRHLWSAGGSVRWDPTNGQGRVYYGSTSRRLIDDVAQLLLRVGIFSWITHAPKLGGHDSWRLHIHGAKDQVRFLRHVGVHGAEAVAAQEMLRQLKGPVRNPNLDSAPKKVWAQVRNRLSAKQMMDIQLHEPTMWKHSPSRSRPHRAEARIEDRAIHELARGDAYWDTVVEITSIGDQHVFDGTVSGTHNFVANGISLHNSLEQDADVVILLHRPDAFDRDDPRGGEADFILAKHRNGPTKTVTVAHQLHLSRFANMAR

[19] = target: T4, Protein RecA (Mycobacterium tuberculosis, UniProt P9WHJ3); assay: Fluorescence Cell-Free Homogeneous Dose Retest to Identify Inhibitors of RecA-Intein Splicing Activity. [Related pubchem assays (depositor defined):AID2097, AID2223, AID489010, AID492950]; type: functional
T4 sequence (P9WHJ3 whole entry): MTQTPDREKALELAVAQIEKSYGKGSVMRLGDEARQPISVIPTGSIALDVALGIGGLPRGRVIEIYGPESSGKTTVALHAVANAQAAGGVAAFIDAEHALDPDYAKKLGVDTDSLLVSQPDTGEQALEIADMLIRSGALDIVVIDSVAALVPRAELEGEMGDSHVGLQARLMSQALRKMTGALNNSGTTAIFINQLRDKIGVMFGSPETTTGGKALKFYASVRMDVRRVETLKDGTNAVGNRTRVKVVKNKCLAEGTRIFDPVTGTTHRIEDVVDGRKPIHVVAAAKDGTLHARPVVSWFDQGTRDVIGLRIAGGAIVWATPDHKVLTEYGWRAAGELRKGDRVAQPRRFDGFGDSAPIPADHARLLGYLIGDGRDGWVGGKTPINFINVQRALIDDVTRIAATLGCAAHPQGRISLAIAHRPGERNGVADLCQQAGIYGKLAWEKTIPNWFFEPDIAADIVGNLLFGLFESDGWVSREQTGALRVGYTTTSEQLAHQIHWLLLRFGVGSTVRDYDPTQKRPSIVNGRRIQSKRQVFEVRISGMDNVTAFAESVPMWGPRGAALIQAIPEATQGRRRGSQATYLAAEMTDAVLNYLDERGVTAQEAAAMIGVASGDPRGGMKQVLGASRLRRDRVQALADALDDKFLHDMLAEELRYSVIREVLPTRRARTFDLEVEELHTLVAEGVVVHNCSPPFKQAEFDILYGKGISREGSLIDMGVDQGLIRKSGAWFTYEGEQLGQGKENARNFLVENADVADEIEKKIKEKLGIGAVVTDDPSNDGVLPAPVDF

[20] = tested on: SN12K1; assay: cells; type: functional; conditions: Homo sapiens
[21] = tested on: P388; assay: cells; type: functional; conditions: Mus musculus;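 further: compound exposure lasted 48 hours before growth was measured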

Sequence of Cytochrome P450 3A4 (P08684 whole entry): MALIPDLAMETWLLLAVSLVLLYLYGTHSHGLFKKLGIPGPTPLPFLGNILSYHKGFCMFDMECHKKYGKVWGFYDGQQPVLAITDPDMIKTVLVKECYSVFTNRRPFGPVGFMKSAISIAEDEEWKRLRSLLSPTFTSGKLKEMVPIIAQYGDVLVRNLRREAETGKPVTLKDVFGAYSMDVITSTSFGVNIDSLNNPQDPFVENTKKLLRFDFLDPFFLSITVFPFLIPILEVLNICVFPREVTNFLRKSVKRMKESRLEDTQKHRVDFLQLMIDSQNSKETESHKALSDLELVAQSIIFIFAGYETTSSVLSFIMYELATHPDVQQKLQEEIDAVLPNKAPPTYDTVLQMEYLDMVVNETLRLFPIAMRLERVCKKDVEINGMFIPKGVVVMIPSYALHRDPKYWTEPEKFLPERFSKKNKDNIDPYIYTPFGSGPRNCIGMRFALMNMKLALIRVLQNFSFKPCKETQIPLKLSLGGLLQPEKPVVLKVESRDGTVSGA
Sequence of Induced myeloid leukemia cell differentiation protein Mcl-1 (Q07820 whole entry): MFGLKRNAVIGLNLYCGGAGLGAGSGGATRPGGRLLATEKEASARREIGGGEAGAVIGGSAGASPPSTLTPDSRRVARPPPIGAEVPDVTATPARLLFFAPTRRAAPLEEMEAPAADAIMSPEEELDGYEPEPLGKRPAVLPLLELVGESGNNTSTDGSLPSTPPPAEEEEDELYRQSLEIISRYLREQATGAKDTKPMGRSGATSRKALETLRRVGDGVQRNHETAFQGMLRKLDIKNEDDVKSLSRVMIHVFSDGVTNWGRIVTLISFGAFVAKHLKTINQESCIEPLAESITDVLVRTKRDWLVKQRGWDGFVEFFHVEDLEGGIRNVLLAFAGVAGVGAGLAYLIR

## CC(=O)OC[C@@]1(O)C[C@]23CCC4c5ccoc5CC[C@@]4(C)C2CCC1C3 (some centres not stated)
[1]
  AC50: 31.6 µM (inconclusive)

## OCC1OC(C#Cc2ccccc2)C=CC1O (configuration not stated)
[1]
  AC50: 3.16 µM (inconclusive) and 6.31 µM (inconclusive) (2×)

## Cc1ccc(C2C3CSCC=C3C(C#N)=C(N)C2(C#N)C#N)cc1 (configuration not stated)
[2]
  EC50: > 160 µM (inactive)
[3]
  EC50: > 20 µM (not active)
[4]
  EC50: 17.4 µM (active)
[5]
  EC50: > 38 µM (not active)

## O=C(/C=C/c1ccccc1)c1ccc(NC2=NCCCS2)cc1
[6]
  IC50: 8.3 µM (active)

## COc1ccc(OC)c(S(=O)(=O)n2nnc3cc(Cl)ccc32)c1
[7]
  IC50: 103 µM (active)

## O=C(O)C1CC=CCC1C(=O)Nc1ccccc1 (configuration not stated)
[7]
  IC50: 29 µM (active)

## COc1ccccc1C(=O)N=C(NC(=O)c1ccccc1OC)Nc1nc2ccccc2o1
[8]
  EC50: > 60 µM (not active)
[9]
  CC50: 14 µM (active)
[10]
  EC50: 1.38 µM (active)
[3]
  EC50: 5.05 µM (active)
[4]
  EC50: 4.28 µM (active)

## CCCOC(=O)c1ccc(Oc2c(C)n[nH]c2-c2ccc(OCC)cc2O)cc1
[11]
  EC50: > 150 µM (not active)
[3]
  EC50: 7.31 µM (active)
[12]
  EC50: 11.1 µM (active)
[4]
  EC50: 11.9 µM (active)
[13]
  AC50: 3.66 µM (active)

## Cc1cc(C)n(S(=O)(=O)/C=C/c2ccccc2)n1
[14]
  EC50: 12.1 µM (active)
[3]
  EC50: 9.65 µM (active)
[4]
  EC50: 9.1 µM (active)

## CCCn1c(-c2ccc(F)cc2)nc2c(NCCCN(CC)CC)nc(C)nc21
[1]
  AC50: 20 µM (inconclusive)

## Cn1c(N)c(C(=O)COC(=O)c2cc(C3CC3)nc3ccccc23)c(=O)n(C)c1=O
[1]
  AC50: 39.8 µM (inconclusive)

## C=C(CCC(=O)c1ccccc1)C(=O)c1ccccc1
[15]
  EC50: 9.9 µM (active)
[16]
  IC50: > 50 µM (not active)
[14]
  EC50: 15 µM (active)
[9]
  CC50: 17.7 µM (active)
[17]
  EC50: 8.26 µM (active)

## COc1ccc(NC(=O)C(CC(=O)O)Cc2ccccc2)cc1 (configuration not stated)
[7]
  IC50: 28.1 µM (active)

## O=C1C=C(NCc2ccc(Cl)c(Cl)c2)CC1
[3]
  EC50: > 20 µM (not active)
[4]
  EC50: > 20 µM (not active)

## CC(=O)N1CC=CC1(C)C(=O)NCC1CC1 (configuration not stated)
[1]
  AC50: 31.6 µM (inconclusive)

## Cc1ccc(C(=O)COC(=O)CNC(=O)c2ccc(N3C(=O)c4ccccc4C3=O)cc2)cc1C
[6]
  IC50: 2.13 µM (not active)

## Cc1ccc(-c2[nH]nc3c2C(c2ccsc2)C(C#N)=C(N)O3)cc1 (configuration not stated)
[18]
  AC50: 3.26 µM (active)
[7]
  IC50: 11.3 µM (active)
[19]
  EC50: 1.2 µM (active)

## COc1cccc2c1C(=O)c1c(O)c3c(c(O)c1C2=O)C[C@@](O)(C(=O)CO)C[C@@H]3OC1CC(N2CCOCC2C#N)C(O)C(C)O1 (some centres not stated)
[20]
  GI50: 11.3 pM (active)
[21]
  GI50: 2.9 pM (active)

## CCc1nnc(NS(=O)(=O)c2ccc(/N=C/c3c(C)[nH]n(-c4cccc(Cl)c4)c3=O)cc2)s1
[7]
  IC50: 11.3 µM (active)

## O=C(CSc1nnc(O)nc1O)N/N=C/c1ccccc1
[7]
  IC50: 21.1 µM (active)

## NC(=O)/N=N/C(N)=O [E927A]
[1]
  AC50: 31.6 µM (inconclusive)
